In patent publication US20220323443A1, “COMBINATION THERAPY FOR CANCER TREATMENT” (TAKEDA PHARMACEUTICAL COMPANY LIMITED, priority 2019, published 2022):

Experiments:
H-1650 (Lung) = test: In vitro combination study for selected compounds, additional cell lines; format: cell-based; conditions: drug combined with Compound 1
Description: (§1) In vitro anti-proliferative effects of selected compounds were tested in additional cell lines, including ovarian cancer (SKOV3) and pancreatic cancer (MIA-PACA-2) cell lines.

[1] = tested on: ovarian cancer (SKOV3) cell line; test: as above; format: cell-based; conditions: drug combined with Compound 1
Description: as §1

CALU6 (Lung) = test: as above; format: cell-based; conditions: drug combined with Compound 1
Description: as §1

DU-145 (Prostate) = test: In vivo combination study, Cell Derived Xenograft; parameters: species or system mouse; conditions: DU-145 (165 mm^3); Compound 1 60 mg/kg once daily Day 1-21; drug 40 mg/kg intraperitoneally Days 1,4,8,11,15,18
Description: (§2) To investigate in vivo antitumor activity of Compound 1 in combination with other agents, tests using Cell Derived Xenograft (CDX), Patient Derived Xenograft (PDX) and Syngeneic mouse tumor isograft model were conducted. Cells or Patient Derived Tumors were inoculated by one method of the following two methods (Method A and B) as shown Table 7.
Method A; Cells were maintained in either immune deficient nude mice or immune competent mice by subcutaneous inoculation of tumor cells at various concentrations into respected mice. Method B: Patient Derived Tumor s were maintained in nude mice by subcutaneous inoculation of tumor pieces (approx. 2×2×2 mm) into nude mice. […]
Tumor size was measured by caliper and tumor volume was estimated using the equation V=(LW^2)/2, where L and W are tumor length and width, respectively and reported in cubic millimeters. […]
For synergy analyses, the observed differences in the log tumor values were used to calculate AUC values for each animal. […] The AUC for the control, or vehicle, group was calculated using the predicted values from the pairwise models described above. […]
where Ak and Bk are the k^th animal in the individual treatment groups and ABk is the k^th animal in combination treatment group. […] The standard error of the synergy score was calculated as the square root of the sum of squared standard errors across groups A, B, and AB. […]

HCT116 cancer cells = test: In vitro combination study with Compound 1, Cell Titer-Glo (ATP) cell viability, 72 h; format: cell-based; conditions: DNA damaging agent combined with Compound 1; 72 h;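 note: combination call from 10×10 dose matrices in duplicate, graded by synergy, with percent activity per well relative to DMSO vehicle controls on the same plate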
A549 cancer cells = test: as above; format: cell-based; conditions: DNA damaging agent combined with Compound 1; 72 h;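 note: Ten-by-ten dose matrices of the two agents in duplicate, compounds added 16 h post-plating, activity relative to DMSO vehicle wells, call reflects synergy evaluation from luminescence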
Description: (§3) Each combination pair was evaluated in an individual 384-well plate which contained variable doses of both compounds as single agents, as well as two, ten-by-ten matrices (in duplicate) that contained mixtures of the two test compounds. In brief, compounds were added to the cell test plates 16 hours after cell plating and then assessed for viability 72 hours later. Continuous cultures of tumor cells were maintained under standard cell culturing conditions (i.e. in a humidified chamber set at 37° C., containing atmosphere 5% carbon dioxide). […] Seventy-two hours after compound addition, ATP levels were measured to assess cell viability. Plating densities were chosen to ensure optimal linear growth over the 72 hour period.
(§4) Compound dilution and compound delivery to the assay plates were done on HighRes Robotic System (HighRes Biosolutions, Woburn, Mass., USA) with Echo™ Liquid Handler (Labcyte, Sunnyvale, Calif., USA). […] Next, these were used for compound transfer into cell assay plates. All wells were back-filled to give a constant percentage of DMSO.
(§5) The final DMSO concentration was held constant in all wells across the plate and was maintained at less than 0.5%. […] Cells treated with vehicle (DMSO) in two rows, or single compound serial dilutions in one plate columns/row served as the untreated control and single compound controls, respectively.
(§6) Compound activity in A549, COLO205, H460, HCT116, SW48, SW620 cancer cell lines was assessed using Cell Titer-Glo® (Promega [Madison, Wis., USA]). After 72 hours incubation, the plates were treated as per package insert protocol for the Promega Luminescence ATP Detection Systems. Briefly, 25 μL of cell lysis/substrate solution (provided in kit form) was added to each well and the plate was incubated at room temperature for 10 minutes. Luminescence was measured using a PHERAstar multi-label counter (BMG Labtech [Ortenberg, Germany]) or LEADseeker (GE Healthcare Life Sciences [Piscataway, N.J., USA]).
(§7) Numerical luminescence values were analyzed to generate EC50 curves and evaluate synergy. Raw Data reader files were uploaded along with automation workfiles that defined the plate and well contents. Percent activities were calculated for each well versus plate controls.
(§8) Each plate representing a single drug combination was analyzed separately. First, the viability measurements were normalized by scaling the data so that the median of the negative controls was 0 and the median of the positive controls was 100.
(§9) For the combination analysis, a response surface model was used to describe the relationship between the normalized viability and the drug concentrations. The data were fit to the model by minimizing the residual sum of squares. Based on the fitted response surface, plots of constant viability, called isobolograms, were produced.
(§10) The Combination Index and Nonlinear Blending were used as measures of drug synergy. To calculate Combination Index the 50% isobologram (which is the dose contour that has 50% viability) was used. […] A standard procedure was created to produce a call in order to characterize the viability effects for each combination (synergy, additivity, subadditivity, or antagonism). If the Combination Index existed then these measures were used to make the call.

SW620 cancer cells = test: as above; format: cell-based; conditions: DNA damaging agent combined with Compound 1; 72 h;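 note: Ten-by-ten dose matrices of both drugs in 384-well plates, luminescent ATP read-out, synergy evaluated against single-agent and DMSO vehicle controls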
H460 cancer cells = test: as above; format: cell-based; conditions: DNA damaging agent combined with Compound 1; 72 h;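 note: Ten-by-ten dose matrices of both drugs alongside single-agent dilutions, luminescence read 72 hours after compound addition, percent activity per well versus vehicle (DMSO) plate controls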
Description: as §3, §4, §5, §6, §7, §8, §9, §10

Panc02 (Pancreatic) = test: In vivo combination study, syngeneic mouse tumor isograft model
Description: as §2
Method A; Cells were maintained in either immune deficient nude mice or immune competent mice by subcutaneous inoculation of tumor cells at various concentrations into respected mice. Method B: Patient Derived Tumor s were maintained in nude mice by subcutaneous inoculation of tumor pieces (approx. 2×2×2 mm) into nude mice. Mice with tumor size of approximately 50 mm^3 (e.g., 40-75 mm^3) for syngeneic mouse studies or 200 mm^3 (e.g., 110-270 mm^3) for xenograft studies were randomly assigned to dose groups on the day (Day 0) before start date of dosing.
Compound 1 (crystalline form I) was suspended in 0.5 w/v % methylcellulose and administered orally to mice. Antibodies which administered in the experiment were described in Table 8.
Tumor size was measured by caliper and tumor volume was estimated using the equation V=(LW^2)/2, where L and W are tumor length and width, respectively and reported in cubic millimeters.
These values were compared across treatment groups to assess whether the differences in the trends over time were statistically significant. To compare pairs of treatment groups, the following mixed-effects linear regression model was fit to the data using the maximum likelihood method:
For synergy analyses, the observed differences in the log tumor values were used to calculate AUC values for each animal. In instances when an animal in a treatment group was removed from the study, the last observed tumor value was carried forward through all subsequent time points. The AUC for the control, or vehicle, group was calculated using the predicted values from the pairwise models described above. We defined a measure of synergy as follows:
where Ak and Bk are the k^th animal in the individual treatment groups and ABk is the k^th animal in combination treatment group. AUCcd is the model-predicted AUC for the control group and was treated as a constant with no variability. The standard error of the synergy score was calculated as the square root of the sum of squared standard errors across groups A, B, and AB. The degrees of freedom were estimated using the Welch-Satterthwaite equation. A hypothesis test was performed to determine if the synergy score differed from 0. P values were calculated by dividing the synergy score by its standard error and tested against a t-distribution (two-tailed) with the above-calculated degrees of freedom.
The effect was classified into four different categories. It was considered synergistic if the synergy score was less than 0 and additive if the synergy score wasn't statistically different from 0. If the synergy score was greater than zero, but the mean AUC for the combination was lower than the lowest mean AUC among the two single agent treatments, then the combination was sub-additive. If the synergy score was greater than zero, and the mean AUC for the combination was greater than the mean AUC for at least one of the single agent treatments, then the combination was antagonistic.

[2] = tested on: PHTX-249Pa human primary pancreatic xenografts; test: In vivo combination study, Patient Derived Xenograft; parameters: species or system mouse
PHTXM-97Pa (Pancreatic) = test: as above; parameters: species or system mouse
COLO205 cancer cells = test: In vitro combination study with Compound 1, Cell Titer-Glo (ATP) cell viability, 72 h; format: cell-based, human; conditions: DNA damaging agent combined with Compound 1; 72 h;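 note: Ten-by-ten dose matrices of both agents in duplicate plus single-agent dilutions, luminescent ATP read-out, percent activity per well relative to DMSO vehicle wells, synergy call from these matrices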

Nc1ccn([C@@H]2O[C@H](CO)[C@@H](O)C2(F)F)c(=O)n1 [Gemcitabine]
In vitro combination effect with Compound 1, Lung H-1650 (H-1650 (Lung)): Antagonism
In vitro combination effect with Compound 1, Ovary SKOV3 [1]: Additive
In vitro combination effect with Compound 1, Lung CALU6 (CALU6 (Lung)): Additive
Result (combination with Compound 1, tumor growth) (DU-145 (Prostate)): Additive
Call, anti-proliferative effect of combination with Compound 1, HCT116 (HCT116 cancer cells): Additivity (0.7 to 1.3)
Call, anti-proliferative effect of combination with Compound 1, A549 (A549 cancer cells): Antagonism (>2)
Call, anti-proliferative effect of combination with Compound 1, SW620 (SW620 cancer cells): Additivity (0.7 to 1.3)
Call, anti-proliferative effect of combination with Compound 1, H460 (H460 cancer cells): Subadditivity (1.3 to 2)
Result (combination with Compound 1, tumor growth) (Panc02 (Pancreatic); Panc02 (75 mm^3), Compound 1 60 mg/kg orally QD day 0-20, drug 5 mg/kg intraperitoneally QD on Day 0,3,6,9,12): Additive
CR per group (Panc02 (Pancreatic); note to Table 9, by note order: Gemcitabine study in Panc02 (75 mm^3)): 0 CR in Gemcitabine group and 0 CR in Compound 1 group, and 0 CR in Compound 1/Gemcitabine combo group
Result (combination with Compound 1, tumor growth) ([2]; PHTX-249Pa (165 mm^3), Compound 1 40 mg/kg once daily Day 1-21, drug 20 mg/kg intraperitoneally Days 1,4,8,11,15,18): Additive
Result (combination with Compound 1, tumor growth) ([2]; PHTX-249Pa (165 mm^3), Compound 1 40 mg/kg once daily Day 1-21, drug 40 mg/kg intraperitoneally Days 1,4,8,11,15,18): subadditive
Result (combination with Compound 1, tumor growth) ([2]; PHTX-249Pa (165 mm^3), Compound 1 60 mg/kg once daily Day 1-21, drug 20 mg/kg intraperitoneally Days 1,4,8,11,15,18): Additive
Result (combination with Compound 1, tumor growth) ([2]; PHTX-249Pa (165 mm^3), Compound 1 60 mg/kg once daily Day 1-21, drug 40 mg/kg intraperitoneally Days 1,4,8,11,15,18): subadditive
Result (combination with Compound 1, tumor growth) ([2]; PHTX-249Pa (180 mm^3) FIG. 6A, Compound 1 20 mg/kg once daily Day 1-21, drug 5 mg/kg intraperitoneally Days 1,4,8,11,15,18): Synergistic
Result (combination with Compound 1, tumor growth) ([2]; PHTX-249Pa (180 mm^3) FIG. 6A, Compound 1 20 mg/kg once daily Day 1-21, drug 20 mg/kg intraperitoneally Days 1,4,8,11,15,18): Additive
Result (combination with Compound 1, tumor growth) ([2]; PHTX-249Pa (180 mm^3) FIG. 6A, Compound 1 40 mg/kg once daily Day 1-21, drug 5 mg/kg intraperitoneally Days 1,4,8,11,15,18): Additive
Result (combination with Compound 1, tumor growth) ([2]; PHTX-249Pa (180 mm^3) FIG. 6A, Compound 1 40 mg/kg once daily Day 1-21, drug 20 mg/kg intraperitoneally Days 1,4,8,11,15,18): subadditive
antitumor activity ([2]; combined with Compound 1, PHTX-249 Pa human primary pancreatic xenografts, FIG. 6A): strong antitumor activity compared to either single treatment alone
Result (combination with Compound 1, tumor growth) (PHTXM-97Pa (Pancreatic); PHTXM-97Pa (180 mm^3), Compound 1 20 mg/kg once daily Day 1-21, drug 5 mg/kg intraperitoneally Days 1,4,8,11,15,18): subadditive
Result (combination with Compound 1, tumor growth) (PHTXM-97Pa (Pancreatic); PHTXM-97Pa (180 mm^3), Compound 1 20 mg/kg once daily Day 1-21, drug 20 mg/kg intraperitoneally Days 1,4,8,11,15,18): Additive
Result (combination with Compound 1, tumor growth) (PHTXM-97Pa (Pancreatic); PHTXM-97Pa (180 mm^3), Compound 1 40 mg/kg once daily Day 1-21, drug 5 mg/kg intraperitoneally Days 1,4,8,11,15,18): subadditive
Result (combination with Compound 1, tumor growth) (PHTXM-97Pa (Pancreatic); PHTXM-97Pa (180 mm^3), Compound 1 40 mg/kg once daily Day 1-21, drug 20 mg/kg intraperitoneally Days 1,4,8,11,15,18): subadditive
Result (combination with Compound 1, tumor growth) (PHTXM-97Pa (Pancreatic); PHTXM-97Pa (210 mm^3), Compound 1 40 mg/kg once daily Day 1-21, drug 20 mg/kg intraperitoneally Days 1,4,8,11,15,18): subadditive
Result (combination with Compound 1, tumor growth) (PHTXM-97Pa (Pancreatic); PHTXM-97Pa (210 mm^3), Compound 1 40 mg/kg once daily Day 1-21, drug 40 mg/kg intraperitoneally Days 1,4,8,11,15,18): subadditive
Result (combination with Compound 1, tumor growth) (PHTXM-97Pa (Pancreatic); PHTXM-97Pa (210 mm^3), Compound 1 60 mg/kg once daily Day 1-21, drug 20 mg/kg intraperitoneally Days 1,4,8,11,15,18): subadditive
Result (combination with Compound 1, tumor growth) (PHTXM-97Pa (Pancreatic); PHTXM-97Pa (210 mm^3), Compound 1 60 mg/kg once daily Day 1-21, drug 40 mg/kg intraperitoneally Days 1,4,8,11,15,18): subadditive
Call, anti-proliferative effect of combination with Compound 1, COLO205 (COLO205 cancer cells): Additivity (0.7 to 1.3)
